From PMC2139966 (The Journal of Cell Biology, 1997)

Target: band 3 (anion exchanger AE1)
Assay: […]SO4/SO4 exchange in band […] proteoliposomes
Assay type: biochemical, Oryctolagus cuniculus

Ki: 2 ± 1 µM
Structure (SMILES): O=[N+]([O-])c1ccc(/C=C/c2ccc([N+](=O)[O-])cc2S(=O)(=O)O)c(S(=O)(=O)O)c1 [DNDS, 4,4′-dinitorsostilbene-2,2′-disulfonic acid]
